Source: patent publication US20250288599A1, “PHARMACEUTICAL COMPOSITIONS AND METHODS FOR TREATING OSTEOARTHRITIS” (INSIGNIA PHARMACEUTICALS, LLC, priority 2024, published 2025)

Assays:
[1] = system: IL-1β release from human THP1 macrophages; test: Two-hit (LPS then ATP) inflammasome activation model, IL-1β release from THP1 macrophages; assay type: cell-based; conditions: for IC50: Homo sapiens
Excerpt: The proinflammatory cytokine, IL-1β, is released from cells upon activation of the inflammasome, a multi-protein proinflammatory complex. A two-hit model of inflammasome activation in THP1 macrophages was developed that entails an overnight stimulation with LPS followed by a second proinflammatory stimulus, extracellular ATP, which drives inflammasome assembly and subsequent IL-1β release from the cells into the media.

[2] = system: PGE2 release from normal human chondrocytes; test: IL-1β-induced PGE2 release from normal human chondrocyte monolayers, 48 h, competitive EIA; assay type: cell-based
Experimental: Mechanical stress and inflammation are thought to sustain catabolic cycles of extracellular matrix deterioration during osteoarthritis. In particular, PGE2 correlates with increased protease production and discomfort or pain in osteoarthritis.
After 48-hours, PGE2 release was evaluated by competitive EIA, and relative potency was calculated versus dose responses of Dex alone.
After 48 hours, PGE2 release was evaluated by competitive enzyme immunoassay (EIA), and relative potency was calculated versus Dex alone.
Lac is commonly thought to be simply an end-product of anaerobic glycolysis; however, it may also have immunomodulatory effects and promote protein modifications that alter gene expression. The goal of this experiment was to determine how Lac supplementation affects early-phase, inflammatory, and late-stage redifferentiation in chondrocyte models. To establish how Lac may influence inflammation early in osteoarthritis, monolayers of normal human chondrocytes were exposed to Lac dose responses of up to 100 millimolar, concurrently with 0.5 nanograms per milliliter IL-1β for 48 hours. The release of PGE2 was then quantified using competitive EIA. To investigate how Lac affects transcriptional programs in dedifferentiated osteoarthritic chondrocytes, monolayer cultures and micromass pellets were treated for 14 days with 100 millimolar final concentrations of Lac, with and without 10 nanograms per milliliter transforming growth factor beta 3 (TGF-β3). Total RNA was then isolated, and relative expression of SOX9 or Col2a1 was calculated using qRT-PCR, normalized to GAPDH.

[3] = system: MMP13 expression in primary human chondrocytes from an osteoarthritic patient; test: MMP13 relative expression in primary human osteoarthritic chondrocytes treated with HA and/or Dex; assay type: cell-based; conditions: 0.1% HA, 0.1 μM Dex
Experimental: Without being bound by theory, it is hypothesized that HA treatment in combination with Dex could provide a therapeutic strategy that promotes HA's beneficial effects while maintaining Dex's anti-inflammatory response. To investigate this, primary human chondrocytes from an osteoarthritic patient were treated with 0.1% HA and/or 0.1 μM Dex in monolayer culture or micromass pellets for 14 to 28 days. Total mRNA was then extracted, and qRTPCR was performed with primer pairs specific for MMP13 and the housekeeping gene GAPDH. Relative expression was then calculated versus controls, with each sample normalized to GAPDH amplification.

[4] = system: PGE2 release from passage 3 normal human chondrocytes; test: Rescue versus preincubation regimens, IL-1β-induced PGE2 release from passage 3 normal human chondrocytes; assay type: cell-based; conditions: Homo sapiens, Chondrocyte, 25 μM Dec, singlet
Excerpt: The mechanisms of action (MOA) of a drug often dictate the timing and delivery of treatment regimens. While the MOA of compounds disclosed herein continue to be elucidated, experiments were designed to help establish how the drugs should be administered. Furthermore, these experiments will also help with hypothesis generation for subsequent MOA investigations. A low-passage chondrocyte monolayer model was utilized to establish how changes in drug delivery impact the inhibition of IL-1β-induced PGE2 release seen following treatment with the compounds under investigation.
Passage 3 normal human chondrocytes were seeded into tissue culture plates and then tested for compound activity by pre-treating for 24 hours, administering at the same time as activation, or by adding to cells following an overnight activation with IL-1β. Treatment groups included medium control, 25 μM decanoate (Dec), 28 mM D/L sodium Lac, and 10 μM LA. PGE2 release was then evaluated 24- or 96-hours post-activation with percent inhibitions calculated versus plate- and block-matched controls. The experiments were performed in singlet and are intended to be repeated to establish variance.

[5] = system: Col2a1 expression in dedifferentiated osteoarthritic chondrocytes; test: Col2a1 relative expression in high passage osteoarthritic chondrocyte monolayer model with TGF-β; assay type: cell-based, human; conditions: 14 days in culture with TGF-β; 28 mM Lac, 100 mm LA
Experimental: (§1) These compounds were tested in a high passage osteoarthritic chondrocyte monolayer model, alone or in combination with other agents, for both transcriptional regulation of standard markers and IL-1β-induced PGE2 production.

[6] = system: SOX9 expression in dedifferentiated osteoarthritic chondrocytes; test: SOX9 relative expression in high passage osteoarthritic chondrocyte monolayer model with TGF-β; assay type: cell-based, human; conditions: 14 days in culture with TGF-β; 28 mM Lac, 100 mm LA
Experimental: as §1

[7] = system: SOX9 expression in human osteoarthritic chondrocytes; test: SOX9 relative expression in high and low passage osteoarthritic chondrocytes, 7, 14 or 28 days; assay type: cell-based
Excerpt: Media was exchanged bi-weekly. […] SOX9 is a transcription factor vital to the development and maintenance of cartilage and is required for chondrogenesis. SOX9 promotes chondrocyte survival and transcriptionally activates cartilage-specific genes. SOX9 is repressed in hypertrophic chondrocytes (i.e. terminally differentiated osteoblast-like cells).

[8] = system: PGE2 release from dedifferentiated osteoarthritic chondrocytes; test: IL-1β-induced PGE2 release in high passage osteoarthritic chondrocyte monolayer model, 24 h; assay type: cell-based; conditions: Homo sapiens
Experimental: as §1

[9] = system: PGE2 release from normal human chondrocytes; test: IL-1β-induced PGE2 release from normal human chondrocytes, 24 h, DA vs decanoate working solutions; assay type: cell-based; conditions: for inhibition at 25 µM: Homo sapiens, Chondrocyte, 25 micromolar
Experimental: The activity of DA working solutions prepared in either saline or lactated ringer's (LR) isotonic solutions was assessed. […] In addition, concentrated decanoate working solutions in saline or LR were prepared and added to the cultures at a final concentration of 25 micromolar. PGE2 release was then compared to matching points on the DA or decanoate medium as well as saline and LR controls.

[10] = system: MMP13 expression in human osteoarthritic chondrocytes; test: MMP13 relative expression in high and low passage osteoarthritic chondrocytes; assay type: cell-based; conditions: low passage osteoarthritic chondrocytes; 7, 14, 28 days
[11] = system: PGE2 in primary human osteoarthritic synoviocytes; test: Early, pretreatment and intracellular vs secreted PGE2 in IL-1β-stimulated human osteoarthritic synoviocytes; assay type: cell-based; conditions: 200 nanomolar DA or 500 nanograms/milliliter IL-1RA; IL-1β 1 nanogram/milliliter
Experimental: The concentrations in FIG. 31A were measured at hour three.
Cells were also treated with IL-IRA which inhibits IL-1β by binding the cell-surface […] and inhibiting its dimerization with the IL-1 receptor (IL-1R), effectively blocking IL-1β signaling.
FIG. 33 illustrates two bar graphs that depict the concentrations of PGE2 inside of the cell versus PGE2 that was secreted into the cell culture media. Specifically, the bar graph labeled “Intracellular” illustrates the concentrations of PGE2 inside of the cell and the bar graph labeled “Supernatent” illustrates the concentration of PGE2 that was secreted into the cell culture media. Synoviocytes were stimulated with IL-1β for 6 hours and then cell culture media harvested separately along with collecting cell lysates. […] To test this, the PGE2 concentrations inside of the cells and in the cell culture media were measured to compare them directly to each other.

[12] = 14-day micromass pellet culture
[13] = 24 h, rescue (added after overnight IL-1β activation), 24-hour harvest, 28 mM Lac, 10 μM LA
[14] = high passage, dedifferentiated osteoarthritic chondrocytes with TGF-β3, 14 days

C[C@@H]1C[C@H]2[C@@H]3CCC4=CC(=O)C=C[C@]4(C)[C@@]3(F)[C@@H](O)C[C@]2(C)[C@@]1(O)C(=O)CO [Dex, dexamethasone, reference compound]
increased Dex potency by 100 micromolar DA [1]: 1.969 ×
IC50 ([1]; THP-1, Dex phosphate alone, 1 picomolar to 10 micromolar): 0.046 µM
IC50 ([1]; THP-1, Dex with addition of 100 micromolar DA): 0.0234 µM
inhibition at 0.01 µM ([2]; Homo sapiens, Chondrocyte, Dex 10 nanomolar final, IL-1β 500 pg/mL, 48 h): 100%
concentration at which statistical significance of PGE2 suppression was observed ([2]; IL-1β 48 h): 100 picomolar
Observed Relative expression of MMP13 [3, 12]: −38.6 fold
Observed Relative expression of MMP13 ([3]; 28-day monolayer culture): −3.6 fold

O=C(O)CCCCC1CCSS1 (stereo not drawn) [LA, α-lipoic acid]
inhibition at 10 µM [4, 13]: 85%
increase in Col2a1 compared to controls [5]: 218 fold
increase in SOX9 transcription [6]: 4 fold
SOX9 expression [7, 14]: increased SOX9 transcription
inhibition at 1 µM ([8]; LA 1 μM final): 33%
inhibition at 10 µM ([8]; LA 10 μM final): 44%
inhibition at 100 µM ([8]; LA 100 μM final): 93%

CCCCCCCCCC(=O)[O-].[Na+] [Dec, sodium decanoate]
relative potency of decanoate as compared to DA ([9]; 95 percent confidence interval of 0.80-1.06): 0.92
inhibition at 25 µM ([9]; prepared in LR): 65.2%
inhibition at 25 µM ([9]; prepared in medium): 62.3%
inhibition at 25 µM ([9]; prepared in saline): 63.2%
inhibition at 25 µM ([4]; 24 h, added at the same time as IL-1β, 24-hour harvest): 53%
inhibition at 25 µM [4, 13]: 72%
inhibition at 25 µM ([4]; 96 h, added at the same time as IL-1β, 96-hour harvest): 76%
inhibition at 25 µM ([4]; 96 h, rescue, 96-hour harvest, 28 mM Lac, 10 μM LA): 57%
inhibition at 25 µM ([4]; pre-incubation 24 hours before IL-1β, 24-hour harvest, 28 mM Lac, 10 μM LA): 41%
inhibition at 25 µM ([4]; pre-incubation, 96-hour harvest): 75%
increase in potency of sodium decanoate by 25 nanomolar Dex [1]: 4.6 ×
IC50 ([1]; THP-1, repeated experiments comparing DA to sodium decanoate): 146 µM
IC50 ([1]; THP-1, sodium decanoate with addition of 25 nanomolar Dex): 31.5 µM

C[C@@H]1C[C@H]2[C@@H]3CCC4=CC(=O)C=C[C@]4(C)[C@@]3(F)[C@@H](O)C[C@]2(C)[C@@]1(O)C(=O)COP(=O)(O)O [Dxp, dexamethasone phosphate, reference compound]
SOX9 expression [7, 14]: decreased expression of SOX9
SOX9 expression ([7]; low passage osteoarthritic chondrocytes, 7, 14, 28 days): temporal decrease in expression of SOX9
MMP13 transcription [10]: reduce MMP13 transcription

IL-1RA: IL-1 Receptor Antagonist, blocks IL-1β signaling
PGE2 release after pretreatment (5 minutes, 1 hour, or 2 hours) then IL-1β 10 minutes or 1 hour [11]: consistently higher than PGE2 levels in DA treated cells

hyaluronic acid [HA]
Observed Relative expression of MMP13 [3, 12]: −1.6 fold
Observed Relative expression of MMP13 ([3]; 28-day monolayer culture): 1.0 fold
